Reference: patent publication US20120101083A1, “S1P1 AGONISTS COMPRISING A BICYCLIC N-CONTAINING RING” (GLAXO GROUP LIMITED, priority 2009, published 2012)
Where a name gives a salt, the structure may show the parent alone.

Experiments:
[1] = molecular target: T1, S1P1 receptor (S1P1 expressing RH7777 membranes) (Homo sapiens, UniProt P21453); test: S1P1 GTPγS assay; format: biochemical; settings: tested in one of the above S1P1 assays (two GTPγS formats)
T1 construct: expressed in transfected cells; host or cells: RH7777 cells (membranes)
T1 sequence (P21453 whole entry): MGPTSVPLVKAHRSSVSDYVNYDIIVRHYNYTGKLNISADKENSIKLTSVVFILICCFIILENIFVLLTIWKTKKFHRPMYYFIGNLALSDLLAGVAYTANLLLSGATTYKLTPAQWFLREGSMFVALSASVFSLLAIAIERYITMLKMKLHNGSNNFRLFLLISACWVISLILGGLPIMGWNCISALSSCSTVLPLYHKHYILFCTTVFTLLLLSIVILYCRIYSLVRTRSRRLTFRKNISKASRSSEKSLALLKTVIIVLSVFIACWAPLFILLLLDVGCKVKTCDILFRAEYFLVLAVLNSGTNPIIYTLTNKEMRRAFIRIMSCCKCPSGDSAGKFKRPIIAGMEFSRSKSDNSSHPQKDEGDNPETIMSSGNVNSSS
Summary of the method: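 Membranes from RH7777 cells expressing human S1P1 (1.5 μg/well) precoupled 30 min on ice to WGA SPA beads in 20 mM HEPES pH 7.4, 10 mM MgCl2, 100 mM NaCl, with 10 μM GDP and 90 μg/ml saponin. [35S]-GTPγS 0.5 nM final added with compound; SPA signal read immediately.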

[2] = molecular target: T2, S1P1 (PathHunter CHO-K1 EDG1 β-Arrestin cell line) (Homo sapiens, UniProt P21453); test: S1P-1 β-Arrestin recruitment assay; format: cell-based; settings: CHO-K1 EDG1 β-Arrestin cells, chemi-luminescence
T2 construct: host or cells: PathHunter CHO-K1 EDG1 β-Arrestin cell line
T2 sequence (P21453 whole entry): as above
T2 sequence (P32121 whole entry partner): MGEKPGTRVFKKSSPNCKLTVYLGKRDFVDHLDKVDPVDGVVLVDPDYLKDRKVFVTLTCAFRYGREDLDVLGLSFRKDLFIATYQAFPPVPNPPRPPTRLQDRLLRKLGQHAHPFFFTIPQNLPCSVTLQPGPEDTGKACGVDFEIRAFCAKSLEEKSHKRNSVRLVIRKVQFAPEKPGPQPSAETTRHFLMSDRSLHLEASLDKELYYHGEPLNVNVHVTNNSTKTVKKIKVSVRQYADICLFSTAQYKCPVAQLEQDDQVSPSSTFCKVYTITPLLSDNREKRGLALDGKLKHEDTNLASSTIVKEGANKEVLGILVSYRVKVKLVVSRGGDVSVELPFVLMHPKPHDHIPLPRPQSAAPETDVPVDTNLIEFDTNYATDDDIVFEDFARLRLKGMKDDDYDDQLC
Description: S1P-1 β-Arrestin Recruitment Assay
β-Arrestin recruitment assays were carried out using the PathHunter CHO-K1 EDG1
β-Arrestin cell line (DiscoveRx Corporation) in a chemi-luminescence detection assay. This cell line stably expresses β-Arrestin 2 and S1P1 fused to complementing portions of β-galactosidase (‘EA’ and ‘pro-link’, respectively) which associate upon Arrestin recruitment to form functional β-galactosidase enzyme.
Cells were grown to 80% confluency in Growth Medium (F12 nutrient HAMS supplemented with 10% heat-inactivated USA FBS, 1% L-glutamax, 800 μg/ml Geneticin and 300 μg/ml Hygromycin). Cells were harvested from the flask using Enzyme Free Cell Dissociation Buffer (Gibco) and washed from flasks with Optimem solution (Gibco). Cells were then centrifuged at 1000 rpm for 2-3 min and resuspended in Assay Buffer (Prepared from Sigma kit H1387 supplemented with 20 ml/L HEPES, 4.7 ml/L NaHCO3, 0.1% pluronic acid F-68 solution, 0.1% BSA and adjusted to pH 7.4 using sodium hydroxide at 1×10^6 cells/ml. Cells were dispensed into assay plates containing compounds (100n1/well of a solution of test compound in 100% DMSO) at 1×10^4 cells/well and incubated at 37° C./5% CO2 for 90 min followed by 15 min at room temperature. 5 μl detection mix (1 part Galacton Star, 5 parts Emerald II, 19 parts Assay Buffer; DiscoveRx) were added per well and the plates incubated at room temperature for 60 min. Luminescence was quantified using a Viewlux plate reader.

SMILES | EC50 [1] | EC50 [2]
Cc1c(-c2noc(-c3ccc(OC(C)C)c(C#N)c3)n2)ccc2c1CCN(CC(=O)NC[C@H](O)CO)C2 [Example 124, 2-[6-(5-{3-cyano-4-[(1-methylethyl)oxy]phenyl}-1,2,4-oxadiazol-3-yl)-5-methyl-3,4-dihydro-2(1H)-isoquinolinyl]-N-[(2S)-2,3-dihydroxypropyl]acetamide hydrochloride] | ≤ 100 nM | ≤ 10 nM
Cc1c(-c2noc(-c3ccc(OC(C)C)c(C#N)c3)n2)ccc2c1CCN(C(=O)CN)C2 [Example 42, 5-[3-(2-Glycyl-5-methyl-1,2,3,4-tetrahydro-6-isoquinolinyl)-1,2,4-oxadiazol-5-yl]-2-[(1-methylethyl)oxy]benzonitrile hydrochloride] | ≤ 100 nM | ≤ 10 nM
Cc1c(-c2noc(-c3ccc(OC(C)C)c(C#N)c3)n2)ccc2c1CCN(C[C@@H](O)CO)C2 [Example 73, 5-(3-{2-[(2R)-2,3-dihydroxypropyl]-5-methyl-1,2,3,4-tetrahydro-6-isoquinolinyl}-1,2,4-oxadiazol-5-yl)-2-[(1-methylethyl)oxy]benzonitrile hydrochloride] | ≤ 100 nM | ≤ 10 nM
Cc1c(-c2noc(-c3ccc(OC(C)C)c(C#N)c3)n2)ccc2c1CCN(C(CO)CO)CC2 [Example 156, 5-(3-{3-[2-hydroxy-1-(hydroxymethyl)ethyl]-6-methyl-2,3,4,5-tetrahydro-1H-3-benzazepin-7-yl}-1,2,4-oxadiazol-5-yl)-2-[(1-methylethyl)oxy]benzonitrile hydrochloride] | ≤ 100 nM | ≤ 10 nM
CNCCC(=O)N1CCc2c(ccc(-c3noc(-c4ccc(OC(C)C)c(C#N)c4)n3)c2C)C1 [Example 40, 2-[(1-methylethyl)oxy]-5-{3-[5-methyl-2-(N-methyl-b-alanyl)-1,2,3,4-tetrahydro-6-isoquinolinyl]-1,2,4-oxadiazol-5-yl}benzonitrile hydrochloride] | ≤ 100 nM | ≤ 10 nM
Cc1c(-c2noc(-c3ccc(OC(C)C)c(C#N)c3)n2)ccc2c1CCN(CC(=O)NC(CO)CO)CC2 [Example 186, 2-[7-(5-{3-cyano-4-[(1-methylethyl)oxy]phenyl}-1,2,4-oxadiazol-3-yl)-6-methyl-1,2,4,5-tetrahydro-3H-3-benzazepin-3-yl]-N-[2-hydroxy-1-(hydroxymethyl)ethyl]acetamide] | ≤ 100 nM | ≤ 10 nM
Cc1c(-c2noc(-c3ccc(OC(C)C)c(C#N)c3)n2)ccc2c1CCN(C(=O)CNC(CO)CO)CC2 [Example 189, 5-[3-(3-{N-[2-hydroxy-1-(hydroxymethyl)ethyl]glycyl}-6-methyl-2,3,4,5-tetrahydro-1H-3-benzazepin-7-yl)-1,2,4-oxadiazol-5-yl]-2-[(1-methylethyl)oxy]benzonitrile] | ≤ 100 nM | ≤ 10 nM
Cc1c(-c2noc(-c3ccc(OC(C)C)c(C#N)c3)n2)ccc2c1CCN(CC(O)CO)C2 (stereo not shown) [Example 6, 5-{3-[2-(2,3-Dihydroxypropyl)-5-methyl-1,2,3,4-tetrahydro-6-isoquinolinyl]-1,2,4-oxadiazol-5-yl}-2-[(1-methylethyl)oxy]benzonitrile] | ≤ 100 nM | ≤ 10 nM
Cc1c(-c2noc(-c3ccc(OC(C)C)c(C#N)c3)n2)ccc2c1CCN(C(=O)[C@@](C)(N)CO)C2 [Example 82, 2-[(1-methylethyl)oxy]-5-{3-[5-methyl-2-(2-methyl-L-seryl)-1,2,3,4-tetrahydro-6-isoquinolinyl]-1,2,4-oxadiazol-5-yl}benzonitrile] | ≤ 1000 nM | ≤ 100 nM
Cc1c(-c2noc(-c3ccc(OC(C)C)c(C#N)c3)n2)ccc2c1CCN(C[C@@H](O)CO)CC2 [Example 154, 5-(3-{3-[(2R)-2,3-dihydroxypropyl]-6-methyl-2,3,4,5-tetrahydro-1H-3-benzazepin-7-yl}-1,2,4-oxadiazol-5-yl)-2-[(1-methylethyl)oxy]benzonitrile hydrochloride] | ≤ 100 nM | ≤ 100 nM
CNC(=O)CCN1CCc2c(ccc(-c3noc(-c4ccc(OC(C)C)c(C#N)c4)n3)c2C)C1 [Example 43, 3-[6-(5-{3-cyano-4-[(1-methylethyl)oxy]phenyl}-1,2,4-oxadiazol-3-yl)-5-methyl-3,4-dihydro-2(1H)-isoquinolinyl]-N-methylpropanamide] | ≤ 10 nM | ≤ 10 nM
CNC(=O)CCCN1CCc2c(ccc(-c3noc(-c4ccc(OC(C)C)c(C#N)c4)n3)c2C)C1 [Example 5, 4-[6-(5-{3-Cyano-4-[(1-methylethyl)oxy]phenyl}-1,2,4-oxadiazol-3-yl)-5-methyl-3,4-dihydro-2(1H)-isoquinolinyl]-N-methylbutanamide] | ≤ 100 nM | ≤ 10 nM
CCOc1ncc(-c2nc(-c3ccc4c(c3)CCN(C[C@H](O)CO)CC4)no2)cc1C#N [Example 116, 5-(3-{34[(2S)-2,3-dihydroxypropyl]-2,3,4,5-tetrahydro-1H-3-benzazepin-7-yl}-1,2,4-oxadiazol-5-yl)-2-(ethyloxy)-3-pyridinecarbonitrile] | ≤ 1000 nM | ≤ 100 nM

The remaining lines, values ahead:

EC50 [1] | EC50 [2] | SMILES
≤ 10 nM | ≤ 10 nM | COC(=O)NCCN1CCc2ccc(-c3noc(-c4ccc(OC(C)C)c(C#N)c4)n3)cc2CC1 [Example 100, methyl {2-[7-(5-{3-cyano-4-[(1-methylethyl)oxy]phenyl}-1,2,4-oxadiazol-3-yl)-1,2,4,5-tetrahydro-3H-3-benzazepin-3-yl]ethyl}carbamate]
≤ 100 nM | ≤ 10 nM | Cc1c(-c2noc(-c3ccc(OC(C)C)c(C#N)c3)n2)ccc2c1CCN(CC(=O)NC[C@@H](C)O)CC2 [Example 147, 2-[7-(5-{3-cyano-4-[(1-methylethyl)oxy]phenyl}-1,2,4-oxadiazol-3-yl)-6-methyl-1,2,4,5-tetrahydro-3H-3-benzazepin-3-yl]-N-[(2R)-2-hydroxypropyl]acetamide]
≤ 100 nM | ≤ 10 nM | CC(C)Oc1ccc(-c2nc(-c3ccc4c(c3)CCN(C(=O)CNC(CO)CO)CC4)no2)cc1C#N [Example 197, 5-[3-(3-{N-[2-hydroxy-1-(hydroxymethyl)ethyl]glycyl}-2,3,4,5-tetrahydro-1H-3-benzazepin-7-yl)-1,2,4-oxadiazol-5-yl]-2-[(1-methylethyl)oxy]benzonitrile hydrochloride]
≤ 100 nM | ≤ 10 nM | CC(C)Oc1ccc(-c2nc(-c3ccc4c(c3)CCN(C[C@H](O)CO)CC4)no2)cc1C#N [Example 72, 5-(3-{3-[(2S)-2,3-dihydroxypropyl]-2,3,4,5-tetrahydro-1H-3-benzazepin-7-yl}-1,2,4-oxadiazol-5-yl)-2-[(1-methylethyl)oxy]benzonitrile]
≤ 100 nM | ≤ 10 nM | CCNC(=O)CCCN1CCc2ccc(-c3noc(-c4ccc(OC(C)C)c(C#N)c4)n3)cc2CC1 [Example 44, 4-[7-(5-{3-cyano-4-[(1-methylethyl)oxy]phenyl}-1,2,4-oxadiazol-3-yl)-1,2,4,5-tetrahydro-3H-3-benzazepin-3-yl]-N-ethylbutanamide]
≤ 100 nM | ≤ 10 nM | CC(C)Oc1ccc(-c2nc(-c3ccc4c(c3)CCN(CCC(N)=O)CC4)no2)cc1C#N [Example 22, 3-[7-(5-{3-Cyano-4-[(1-methylethyl)oxy]phenyl}-1,2,4-oxadiazol-3-yl)-1,2,4,5-tetrahydro-3H-3-benzazepin-3-yl]propanamide]
≤ 100 nM | ≤ 100 nM | CC(C)Oc1ccc(-c2nc(-c3ccc4c(c3)CCN(C(=O)[C@@](C)(N)CO)CC4)no2)cc1C#N [Example 81, 2-[(1-methylethyl)oxy]-5-{3-[3-(2-methyl-L-seryl)-2,3,4,5-tetrahydro-1H-3-benzazepin-7-yl]-1,2,4-oxadiazol-5-yl}benzonitrile]
≤ 100 nM | ≤ 100 nM | CC(C)Oc1ccc(-c2nc(-c3ccc4c(c3)CCN(C(CO)CO)CC4)no2)cc1C#N [Example 68, 5-(3-{3-[2-hydroxy-1-(hydroxymethyl)ethyl]-2,3,4,5-tetrahydro-1H-3-benzazepin-7-yl}-1,2,4-oxadiazol-5-yl)-2-[(1-methylethyl)oxy]benzonitrile]
≤ 100 nM | ≤ 10 nM | CC(C)Oc1ccc(-c2nc(-c3ccc4c(c3)CCN(C(=O)CCN)CC4)no2)cc1C#N [Example 69, 5-[3-(3-β-alanyl-2,3,4,5-tetrahydro-1H-3-benzazepin-7-yl)-1,2,4-oxadiazol-5-yl]-2-[(1-methylethyl)oxy]benzonitrile]
≤ 100 nM | ≤ 10 nM | CC(C)Oc1ccc(-c2nc(-c3ccc4c(c3)CCN(CCCC(N)=O)CC4)no2)cc1C#N [Example 25, 4-[7-(5-{3-Cyano-4-[(1-methylethyl)oxy]phenyl}-1,2,4-oxadiazol-3-yl)-1,2,4,5-tetrahydro-3H-3-benzazepin-3-yl]butanamide]
